According to paper PMC9569420 (Communications Biology, 2022):

Experiments:
in vitro = details: dog, MDCK-MDR1
MDCK-MDR1 cell = details: 5 µM
EIF2AK1 = molecular target: T1, EIF2AK1 (Homo sapiens, UniProt Q9BQI3); experiment: HotSpot kinase assay; type: biochemical; details: read-out: IC50 (M) of Control Compound
T1 construct: purchased Reaction Biology Corporation
Protocol: (§1) Kinase activity were performed by Reaction Biology Corporation using the “HotSpot” assay platform modified from the published procedure.

ZAK/MLTK = molecular target: T2, ZAK/MLTK (Homo sapiens, UniProt Q9NYL2); experiment: HotSpot kinase assay; type: biochemical; details: read-out: IC50 (M) of Control Compound
T2 construct: purchased Reaction Biology Corporation
T2 sequence (Q9NYL2 whole entry): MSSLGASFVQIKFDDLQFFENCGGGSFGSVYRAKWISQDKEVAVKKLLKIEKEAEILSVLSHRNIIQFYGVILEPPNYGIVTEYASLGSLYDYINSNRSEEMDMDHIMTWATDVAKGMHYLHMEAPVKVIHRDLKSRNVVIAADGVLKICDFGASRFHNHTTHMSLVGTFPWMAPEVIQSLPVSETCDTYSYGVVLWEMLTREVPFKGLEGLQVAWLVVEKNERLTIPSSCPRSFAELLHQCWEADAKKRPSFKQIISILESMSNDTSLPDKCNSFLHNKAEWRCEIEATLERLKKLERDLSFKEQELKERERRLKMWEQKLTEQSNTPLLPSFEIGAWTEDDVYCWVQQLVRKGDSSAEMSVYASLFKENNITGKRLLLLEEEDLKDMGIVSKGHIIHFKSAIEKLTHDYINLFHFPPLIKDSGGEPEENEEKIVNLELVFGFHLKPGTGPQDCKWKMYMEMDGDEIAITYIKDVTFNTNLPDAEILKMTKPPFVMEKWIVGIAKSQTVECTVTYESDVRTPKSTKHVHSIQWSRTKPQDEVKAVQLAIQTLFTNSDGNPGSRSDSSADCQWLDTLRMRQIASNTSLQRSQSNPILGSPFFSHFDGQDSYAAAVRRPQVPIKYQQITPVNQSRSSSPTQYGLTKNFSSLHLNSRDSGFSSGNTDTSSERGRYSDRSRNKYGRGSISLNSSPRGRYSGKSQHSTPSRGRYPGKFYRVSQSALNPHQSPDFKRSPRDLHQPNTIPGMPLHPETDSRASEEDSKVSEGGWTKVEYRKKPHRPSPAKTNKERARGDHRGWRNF
Protocol: as §1

PDK2/PDHK2 = molecular target: T3, PDK2/PDHK2 (Homo sapiens, UniProt Q15119); experiment: HotSpot kinase assay; type: biochemical; details: read-out: IC50 (M) of Control Compound
T3 construct: purchased Reaction Biology Corporation
Protocol: as §1

ARAF = molecular target: T4, ARAF (Homo sapiens, UniProt P10398); experiment: HotSpot kinase assay; type: biochemical; details: read-out: IC50 (M) of Control Compound
T4 construct: purchased Reaction Biology Corporation
T4 sequence (P10398 whole entry): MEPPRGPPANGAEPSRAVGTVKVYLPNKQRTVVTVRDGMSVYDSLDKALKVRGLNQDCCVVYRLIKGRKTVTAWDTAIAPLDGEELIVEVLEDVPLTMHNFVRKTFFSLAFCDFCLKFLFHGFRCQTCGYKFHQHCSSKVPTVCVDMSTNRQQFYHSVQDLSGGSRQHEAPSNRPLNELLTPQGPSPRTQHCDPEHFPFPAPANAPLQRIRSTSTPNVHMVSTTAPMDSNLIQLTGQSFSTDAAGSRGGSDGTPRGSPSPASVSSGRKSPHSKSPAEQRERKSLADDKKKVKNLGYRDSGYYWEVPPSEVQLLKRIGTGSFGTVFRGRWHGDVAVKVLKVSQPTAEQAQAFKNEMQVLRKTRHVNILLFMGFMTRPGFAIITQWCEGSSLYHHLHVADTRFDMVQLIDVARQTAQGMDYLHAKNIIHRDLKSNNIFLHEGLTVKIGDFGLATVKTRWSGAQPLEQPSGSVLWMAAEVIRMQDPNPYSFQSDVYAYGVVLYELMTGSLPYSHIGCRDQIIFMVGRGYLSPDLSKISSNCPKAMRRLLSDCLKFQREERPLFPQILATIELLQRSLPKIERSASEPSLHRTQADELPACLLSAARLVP
Protocol: as §1

PDK4/PDHK4 = molecular target: T5, PDK4/PDHK4 (Homo sapiens, UniProt Q16654); experiment: HotSpot kinase assay; type: biochemical; details: read-out: IC50 (M) of Control Compound
T5 construct: purchased Reaction Biology Corporation
T5 sequence (Q16654 whole entry): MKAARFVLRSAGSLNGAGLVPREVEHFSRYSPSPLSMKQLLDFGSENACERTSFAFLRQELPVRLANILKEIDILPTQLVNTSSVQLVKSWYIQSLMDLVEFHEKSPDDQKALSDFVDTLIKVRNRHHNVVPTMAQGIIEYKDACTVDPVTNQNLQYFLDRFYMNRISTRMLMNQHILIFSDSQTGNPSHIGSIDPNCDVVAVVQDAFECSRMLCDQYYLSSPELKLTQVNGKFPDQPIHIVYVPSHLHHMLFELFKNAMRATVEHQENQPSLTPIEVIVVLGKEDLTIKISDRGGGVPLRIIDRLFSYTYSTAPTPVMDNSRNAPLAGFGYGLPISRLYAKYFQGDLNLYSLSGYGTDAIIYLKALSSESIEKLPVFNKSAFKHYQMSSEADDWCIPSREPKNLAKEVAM
Protocol: as §1

PDK3/PDHK3 = molecular target: T6, PDK3/PDHK3 (Homo sapiens, UniProt Q15120); experiment: HotSpot kinase assay; type: biochemical; details: read-out: IC50 (M) of Control Compound
T6 construct: purchased Reaction Biology Corporation
T6 sequence (Q15120 whole entry): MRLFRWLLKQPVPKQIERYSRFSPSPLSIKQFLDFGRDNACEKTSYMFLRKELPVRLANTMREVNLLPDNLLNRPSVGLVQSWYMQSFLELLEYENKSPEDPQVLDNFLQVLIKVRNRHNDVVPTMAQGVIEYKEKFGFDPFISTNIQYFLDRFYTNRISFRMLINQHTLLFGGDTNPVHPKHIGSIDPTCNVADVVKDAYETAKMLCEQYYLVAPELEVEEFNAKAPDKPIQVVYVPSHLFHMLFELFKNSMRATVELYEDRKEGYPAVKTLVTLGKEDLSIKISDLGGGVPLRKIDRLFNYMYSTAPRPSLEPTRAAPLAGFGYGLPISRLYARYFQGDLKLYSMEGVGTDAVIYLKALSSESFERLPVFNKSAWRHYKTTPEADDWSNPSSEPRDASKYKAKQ
Protocol: as §1

PDK1/PDHK1 = molecular target: T7, PDK1/PDHK1 (Homo sapiens, UniProt Q15118); experiment: HotSpot kinase assay; type: biochemical; details: read-out: IC50 (M) of Control Compound
T7 construct: purchased Reaction Biology Corporation
Protocol: as §1

CK2a = molecular target: T8, CK2a (Homo sapiens, UniProt P68400); experiment: HotSpot kinase assay; type: biochemical; details: read-out: IC50 (M) of Control Compound
T8 construct: purchased Reaction Biology Corporation
T8 sequence (P68400 whole entry): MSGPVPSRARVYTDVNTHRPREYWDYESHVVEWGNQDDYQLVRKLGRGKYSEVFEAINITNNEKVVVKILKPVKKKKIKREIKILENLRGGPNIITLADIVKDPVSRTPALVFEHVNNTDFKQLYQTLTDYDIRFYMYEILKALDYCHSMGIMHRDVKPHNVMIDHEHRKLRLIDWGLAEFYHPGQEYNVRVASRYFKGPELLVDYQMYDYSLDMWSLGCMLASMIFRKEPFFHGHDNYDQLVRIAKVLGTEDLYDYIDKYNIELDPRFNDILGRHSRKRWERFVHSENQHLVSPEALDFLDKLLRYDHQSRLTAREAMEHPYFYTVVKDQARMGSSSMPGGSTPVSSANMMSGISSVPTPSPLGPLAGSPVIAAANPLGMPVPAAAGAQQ
Protocol: as §1

DYRK4 = molecular target: T9, DYRK4 (Homo sapiens, UniProt Q9NR20); experiment: HotSpot kinase assay; type: biochemical; details: read-out: IC50 (M) of Control Compound
T9 construct: purchased Reaction Biology Corporation
T9 sequence (Q9NR20 whole entry): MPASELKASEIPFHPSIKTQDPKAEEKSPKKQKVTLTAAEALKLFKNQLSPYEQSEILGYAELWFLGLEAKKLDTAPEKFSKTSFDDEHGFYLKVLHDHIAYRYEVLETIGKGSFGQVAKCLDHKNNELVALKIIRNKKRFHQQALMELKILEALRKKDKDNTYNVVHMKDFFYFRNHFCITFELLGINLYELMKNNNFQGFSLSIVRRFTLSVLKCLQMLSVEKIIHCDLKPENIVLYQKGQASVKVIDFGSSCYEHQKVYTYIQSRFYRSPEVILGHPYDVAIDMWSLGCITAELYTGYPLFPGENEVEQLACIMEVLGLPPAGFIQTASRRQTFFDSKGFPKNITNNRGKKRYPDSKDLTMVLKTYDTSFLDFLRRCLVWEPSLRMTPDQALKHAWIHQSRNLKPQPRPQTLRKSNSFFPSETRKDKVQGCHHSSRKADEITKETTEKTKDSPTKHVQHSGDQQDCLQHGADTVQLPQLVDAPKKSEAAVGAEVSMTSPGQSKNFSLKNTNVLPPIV
Protocol: as §1

NEK3 = molecular target: T10, NEK3 (Homo sapiens, UniProt P51956); experiment: HotSpot kinase assay; type: biochemical; details: read-out: IC50 (M) of Control Compound
T10 construct: purchased Reaction Biology Corporation
T10 sequence (P51956 whole entry): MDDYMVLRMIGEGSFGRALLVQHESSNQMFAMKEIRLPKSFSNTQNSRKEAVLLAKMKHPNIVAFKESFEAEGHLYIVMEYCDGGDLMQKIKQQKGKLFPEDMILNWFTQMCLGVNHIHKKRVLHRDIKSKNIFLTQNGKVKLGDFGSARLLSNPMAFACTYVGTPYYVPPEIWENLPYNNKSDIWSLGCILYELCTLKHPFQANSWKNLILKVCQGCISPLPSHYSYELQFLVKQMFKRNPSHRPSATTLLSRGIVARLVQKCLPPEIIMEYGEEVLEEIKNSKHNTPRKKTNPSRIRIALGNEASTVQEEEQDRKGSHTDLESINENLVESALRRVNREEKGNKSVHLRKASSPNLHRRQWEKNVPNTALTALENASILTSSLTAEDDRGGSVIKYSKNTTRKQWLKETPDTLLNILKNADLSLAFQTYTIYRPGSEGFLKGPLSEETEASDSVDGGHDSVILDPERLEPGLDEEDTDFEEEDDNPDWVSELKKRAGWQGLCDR
Protocol: as §1

TGFBR2 = molecular target: T11, TGFBR2 (Homo sapiens, UniProt P37173); experiment: HotSpot kinase assay; type: biochemical; details: read-out: IC50 (M) of Control Compound
T11 construct: purchased Reaction Biology Corporation
Protocol: as §1

TRPM7/CHAK1 = molecular target: T12, TRPM7/CHAK1 (Homo sapiens, UniProt Q96QT4); experiment: HotSpot kinase assay; type: biochemical; details: read-out: IC50 (M) of Control Compound
T12 construct: purchased Reaction Biology Corporation
Protocol: as §1

NEK6 = molecular target: T13, NEK6 (Homo sapiens, UniProt Q9HC98); experiment: HotSpot kinase assay; type: biochemical; details: read-out: IC50 (M) of Control Compound
T13 construct: purchased Reaction Biology Corporation
T13 sequence (Q9HC98 whole entry): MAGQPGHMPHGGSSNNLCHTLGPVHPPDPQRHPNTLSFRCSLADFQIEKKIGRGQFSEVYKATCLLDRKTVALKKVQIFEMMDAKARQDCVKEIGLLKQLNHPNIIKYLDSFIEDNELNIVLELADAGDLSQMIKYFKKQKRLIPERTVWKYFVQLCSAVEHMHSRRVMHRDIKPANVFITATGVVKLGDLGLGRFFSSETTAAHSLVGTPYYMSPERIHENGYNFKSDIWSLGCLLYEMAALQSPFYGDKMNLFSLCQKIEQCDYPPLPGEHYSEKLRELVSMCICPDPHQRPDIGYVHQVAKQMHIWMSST
Protocol: as §1

NEK7 = molecular target: T14, NEK7 (Homo sapiens, UniProt Q8TDX7); experiment: HotSpot kinase assay; type: biochemical; details: read-out: IC50 (M) of Control Compound
T14 construct: purchased Reaction Biology Corporation
T14 sequence (Q8TDX7 whole entry): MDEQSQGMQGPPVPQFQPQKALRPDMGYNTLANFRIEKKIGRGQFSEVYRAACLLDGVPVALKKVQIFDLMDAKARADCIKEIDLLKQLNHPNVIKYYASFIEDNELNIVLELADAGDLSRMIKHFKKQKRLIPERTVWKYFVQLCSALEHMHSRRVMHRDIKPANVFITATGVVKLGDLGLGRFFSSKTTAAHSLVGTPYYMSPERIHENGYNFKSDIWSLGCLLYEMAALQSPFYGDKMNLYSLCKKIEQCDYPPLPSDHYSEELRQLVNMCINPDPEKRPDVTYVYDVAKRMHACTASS
Protocol: as §1

T1 sequence (Q9BQI3 whole entry): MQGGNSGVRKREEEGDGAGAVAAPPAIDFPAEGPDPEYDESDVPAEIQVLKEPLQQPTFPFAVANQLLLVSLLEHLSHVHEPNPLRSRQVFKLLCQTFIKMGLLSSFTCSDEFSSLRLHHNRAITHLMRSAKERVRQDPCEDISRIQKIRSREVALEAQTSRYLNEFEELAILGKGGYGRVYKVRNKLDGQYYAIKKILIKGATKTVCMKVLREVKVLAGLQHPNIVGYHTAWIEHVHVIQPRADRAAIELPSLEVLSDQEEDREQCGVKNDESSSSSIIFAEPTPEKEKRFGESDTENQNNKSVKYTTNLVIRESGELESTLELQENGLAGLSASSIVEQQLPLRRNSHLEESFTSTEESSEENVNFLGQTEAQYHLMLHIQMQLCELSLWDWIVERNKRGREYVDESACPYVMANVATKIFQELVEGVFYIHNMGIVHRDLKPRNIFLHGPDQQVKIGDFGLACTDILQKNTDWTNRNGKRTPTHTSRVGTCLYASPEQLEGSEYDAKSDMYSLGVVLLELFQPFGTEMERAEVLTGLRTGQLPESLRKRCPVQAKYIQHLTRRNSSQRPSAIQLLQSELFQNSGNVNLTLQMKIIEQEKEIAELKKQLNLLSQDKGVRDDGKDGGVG

C[C@H]1O[C@@H](O[C@H]2[C@@H](O)C[C@H](O[C@H]3[C@@H](O)C[C@H](O[C@H]4CC[C@@]5(C)[C@H](CC[C@@H]6[C@@H]5C[C@@H](O)[C@]5(C)[C@@H](C7=CC(=O)OC7)CC[C@]65O)C4)O[C@@H]3C)O[C@@H]2C)C[C@H](O)[C@@H]1O [Digoxin]
Papp at 1 h, 5 μM (in vitro): 3.1 ×10⁻⁶ cm/s | Recover % (MDCK-MDR1 cell): 96%

Cn1cc(-c2ccc3c(c2)CCN3C(=O)Cc2cccc(C(F)(F)F)c2)c2c(N)ncnc21 [GSK-2606414, reference compound]
IC50 (EIF2AK1): 9.62e-08 M

O=C1Nc2ccc(I)cc2/C1=C/c1cc(Br)c(O)c(Br)c1 [GW5074, reference compound]
IC50 (ZAK/MLTK): 1.89e-06 M | IC50 (PDK2/PDHK2): 5.05e-06 M | IC50 (ARAF): 1.39e-08 M | IC50 (PDK4/PDHK4): 1.89e-06 M | IC50 (PDK3/PDHK3): 2.57e-06 M | IC50 (PDK1/PDHK1): 8.63e-06 M | IC50 (CK2a): 2.67e-07 M | IC50 (DYRK4): 4.12e-06 M

CN(C)C/C=C/C(=O)Nc1cccc(C(=O)Nc2ccc(Nc3nccc(-c4cccnc4)n3)cc2)c1 [JNK-IN-7, reference compound]
IC50 (NEK3): 5.46e-08 M

c1ccc2c(-c3cnn4cc(-c5ccc(N6CCNCC6)cc5)cnc34)ccnc2c1 [LDN193189, reference compound]
IC50 (TGFBR2): 1.09e-07 M

CCCCCCCCCCCCCCCCn1cc[n+](Cc2ccccc2)c1C [NH125, reference compound]
IC50 (TRPM7/CHAK1): 2.34e-05 M

O=C1Nc2ccc3ncsc3c2/C1=C/c1cnc[nH]1 [PKR Inhibitor, reference compound]
IC50 (NEK6): 9.32e-06 M | IC50 (NEK7): 8.35e-06 M
